A short description of data set [1]: Antitumor activity against mouse 3PS cells xenografted mouse assessed as increase in life span at 6.25 mg/kg. Type of data set: functional.
A short description of data set [2]: Toxicity against brine shrimp. Type of data set: organism-based. Conditions: artemia, in vivo.
Data set [3] in a line: Antitumor activity against mouse 3PS cells xenografted mouse assessed as increase in life span at 12.5 mg/kg. Type of data set: functional.
Data set [4] can be described thus: Antitumor activity against mouse 3PS cells xenografted mouse assessed as increase in life span at 25 mg/kg. The format is functional.
Data set [5] can be described thus: Cytotoxicity against mouse 9PS cells. Type of data set: functional. Conditions: read-out: LC50 (the source's name).
The subject of data set [6] is Agrobacterium tumefaciens. The data set is described as follows: Antitumor activity against Agrobacterium tumefaciens-induced tumor formation at 10 ug/disk by potato disk assay. The format is functional.
A short description of data set [7]: Antitumor activity against mouse 3PS cells xenografted mouse assessed as increase in life span at 50 mg/kg. The format is functional.
Data set [8] in a line: Antitumor activity against mouse 3PS cells xenografted mouse assessed as increase in life span at 3.62 mg/kg. Type of data set: functional.
The next data set concerns Mus musculus. In words: Antitumor activity against mouse 3PS cells xenografted mouse assessed as increase in life span. Type of data set: functional, cell-based.

≈ marks a conversion by molar mass, not a printed value. Calls of active or inactive are those of the source. The rule behind the calls is not given here.

Turning to `Oc1cc(O)cc(/C=C/c2ccc(O)c(O)c2)c1` [PICEATANNOL], the Activity is given as 114% in data set [1]; 118% in [3]; 123% in [4]; -20% in data set [6]; 131% in [7]; 109% in [8]. The LC50 – broadly, the concentration lethal to half of the exposed cells or organisms – in data set [2] is 278 µg/mL (≈ 1140 µM). For the same molecule, the CC50 in data set [5] was 2.5 µg/mL (≈ 10.2 µM).
On to `O=c1ccc2cc(O)c(O)cc2o1` [ESCULETIN], for which the LC50 in data set [2] is above 1000 µg/mL. In addition, the result in the data set on Mus musculus was inactive. Moreover, the CC50 in data set [5] turned out to be 3.9 µg/mL (≈ 21.9 µM). In addition, the Activity in data set [6] is -13%.

The values above are taken from ChEMBL document CHEMBL1151610, “Use of potato disc and brine shrimp bioassays to detect activity and isolate piceatannol as the antileukemic principle from the seeds of Euphorbia lagascae” (J Nat Prod, 1984).
